US20100160454A1, “ANTIMICROBIAL AGENTS, COMPOSITIONS AND PRODUCTS CONTAINING THE SAME, AND METHODS OF USING THE COMPOSITIONS AND PRODUCTS” (Eastman Chemical Company, priority 2008, published 2010)

What was measured:
Test in all cases: Microbiological challenge testing in BPW broth, graded subculture counts
Format in all cases: cell-based
[1] = tested on: Candida albicans Wild type; details: C. albicans
Protocol: The microorganisms in the table below were used in challenge tests. They were either ATCC (American Type Culture Collection) or “wild type” as indicated. Wild type organisms were problematic organisms previously isolated from chemical products.
All of the microorganisms were grown in Tryptose Soy Broth (TSB), DIFCO™ available from Becton, Dickinson and Company, containing 1% dextrose. Candida albicans and Aspergillus niger, were incubated at 22° C.+/−2° C. for at least 96 hours. All bacteria were incubated at 35° C.+/−2° C. in a humidified incubator for at least 96 hours.
Candida albicans and Aspergillus niger were also grown on Sabouraud Dextrose Agar (SABD) at 22° C. for 7 to 14 days or until full sporulation was achieved.
The following procedure was followed to determine the amount of each challenge material (inoculum broth) needed to produce a 10^8 CFU/mL challenge, which is equivalent to a final test-sample microbial concentration of 10^5 to 10^6 CFU/mL (CFU=colony forming units).
Using a sterile pipette, 1 mL of the growth from each TSB culture was transferred into tubes of 9 mL buffered water (pH 7.2 phosphate buffer) and mixed thoroughly. This was repeated to make serial 1:10 dilutions. Then, 0.1 mL of each sample and dilution was inoculated onto agar plates to produce the equivalent of a further 1:10 dilution. (C. albicans and A. niger were inoculated onto SABD and bacteria were inoculated onto Plate Count Agar (PCA), DIFCO™ available from Becton, Dickinson and Company.) (The normal volume plated for most samples was 0.1 mL. Some samples that could be very low in micro-organisms (high dilutions) were plated using 0.5 mL of inoculum, in order to produce reproducible counts.) The samples were distributed on the plates using the spread-plate technique. The spread-plate technique is carried out by spreading the sample over the entire plate surface using a sterile spreading rod while rotating the plate with a rotary auto-plater. After the inoculum was absorbed completely by the agar, each plate was inverted and incubated (fungi at 22° C.+/−2° C. and bacteria at 35° C.+/−2° C.).
After incubation for at least 48 hours, colonies that had developed on the agar plates were counted (CFU) and recorded with the corresponding dilution. If counting had to be delayed temporarily, plates were refrigerated, preferably no more than 24 hours, until they could be counted. The number of CFU/mL was determined by multiplying the plate count by the dilution factor of the plate counted.
Turbidity in Nepholemetric Turbidity Units (NTU) was measured for each serial dilution using the HF-Micro 100 Model Turbidimeter. For each microorganism, the plate counts were compared to the turbidity readings.
On the day of challenge, the Candida albicans inoculum broth was poured through nonabsorbent sterile gauze and centrifuged. The […] was then diluted with buffered water (pH 7.2 phosphate buffer) until the desired turbidity was reached. Using a hemocytometer, a determination was made whether the challenge contained the desired concentration. Dilutions were made through 1.0×10^8 and three SABD spread plates were inoculated with 0.1 mL of each dilution. The plates were incubated for at least 48 hours and challenge counts were confirmed.
Control substrates (“broth alone”) were prepared for each microorganism separately in triplicate by adding 13.5 mL of Buffered Peptone Water broth (BPW) containing 1% dextrose to each 20-mL glass tube, then adding 1.5 mL challenge material to produce a final concentration at time zero of 10^5 to 10^6 CFU/mL and a total volume of 15 mL.

[2] = tested on: Escherichia coli ATCC 25922; details: E. Coli
How it was run: (§1)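 Strains grown in TSB with 1% dextrose at 35 °C for ≥96 h. Inoculum added to BPW broth with 1% dextrose, with or without test material (w/v), to 10^5–10^6 CFU/mL at time zero. Counts by spread-plating serial 1:10 dilutions in pH 7.2 phosphate buffer on PCA, incubated at 35 °C for ≥48 h.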

[3] = tested on: Streptococcus mutans ATCC 35668
How it was run: as §1

## O=C([O-])CN(CCN(CC(=O)[O-])CC(=O)O)CC(=O)O.[Na+].[Na+] [EDTA, Na2EDTA]
[1]; 0.5% (wt/vol), 3 day
  Grade: 4 (1000 to 10,000 colonies countable (thus 10,000 CFU/mL to 100,000 CFU/mL))
[1]; 0.5% (wt/vol), 14 day
  Grade: 5 (More than 10,000 colonies estimated (thus more than 100,000 CFU/mL))
[1]; 0.5% (wt/vol), 30 day
  Grade: 5 (More than 10,000 colonies estimated (thus more than 100,000 CFU/mL))
[1]; 1.25% (wt/vol), 3 day
  Grade: 4 (1000 to 10,000 colonies countable (thus 10,000 CFU/mL to 100,000 CFU/mL))
[1]; 1.25% (wt/vol), 14 day
  Grade: 4 (1000 to 10,000 colonies countable (thus 10,000 CFU/mL to 100,000 CFU/mL))
[1]; 1.25% (wt/vol), 30 day
  Grade: 4 (1000 to 10,000 colonies countable (thus 10,000 CFU/mL to 100,000 CFU/mL))
[1]; 2.5% (wt/vol), 3 day
  Grade: 2 (52 to 100 colonies counted (thus 520 to 1000 CFU/mL))
[1]; 2.5% (wt/vol), 14 day
  Grade: 2 (52 to 100 colonies counted (thus 520 to 1000 CFU/mL))
[1]; 2.5% (wt/vol), 30 day
  Grade: 2 (52 to 100 colonies counted (thus 520 to 1000 CFU/mL))
[1]; 5.0% (wt/vol), 3 day
  Grade: 1 (0 to 51 colonies counted (thus 10 to 510 CFU/mL based on 0.1-mL sample))
[1]; 5.0% (wt/vol), 14 day
  Grade: 0
[1]; 5.0% (wt/vol), 30 day
  Grade: 0
[2]; 0.5% (wt/vol), 3 day
  Grade: 5 (More than 10,000 colonies estimated (thus more than 100,000 CFU/mL))
[2]; 0.5% (wt/vol), 14 day
  Grade: 5 (More than 10,000 colonies estimated (thus more than 100,000 CFU/mL))
[2]; 0.5% (wt/vol), 30 day
  Grade: 5 (More than 10,000 colonies estimated (thus more than 100,000 CFU/mL))
[2]; 1.25% (wt/vol), 3 day
  Grade: 4 (1000 to 10,000 colonies countable (thus 10,000 CFU/mL to 100,000 CFU/mL))
[2]; 1.25% (wt/vol), 14 day
  Grade: 4 (1000 to 10,000 colonies countable (thus 10,000 CFU/mL to 100,000 CFU/mL))
[2]; 1.25% (wt/vol), 30 day
  Grade: 4 (1000 to 10,000 colonies countable (thus 10,000 CFU/mL to 100,000 CFU/mL))
[2]; 2.5% (wt/vol), 3 day
  Grade: 0
[2]; 2.5% (wt/vol), 14 day
  Grade: 0
[2]; 2.5% (wt/vol), 30 day
  Grade: 0
[2]; 5.0% (wt/vol), 3 day
  Grade: 0
[2]; 5.0% (wt/vol), 14 day
  Grade: 0
[2]; 5.0% (wt/vol), 30 day
  Grade: 0
[3]; 0.5% weight/volume
  S. mutans growth grade, 3 day: 4 (1000 to 10,000 colonies countable (thus 10,000 CFU/mL to 100,000 CFU/mL))
  S. mutans growth grade, 13 day: 4 (1000 to 10,000 colonies countable (thus 10,000 CFU/mL to 100,000 CFU/mL))
  S. mutans growth grade, 30 day: 4 (1000 to 10,000 colonies countable (thus 10,000 CFU/mL to 100,000 CFU/mL))
[3]; 1.25% weight/volume
  S. mutans growth grade, 3 day: 2 (52 to 100 colonies counted (thus 520 to 1000 CFU/mL))
  S. mutans growth grade, 13 day: 2 (52 to 100 colonies counted (thus 520 to 1000 CFU/mL))
  S. mutans growth grade, 30 day: 2 (52 to 100 colonies counted (thus 520 to 1000 CFU/mL))
[3]; 2.5% weight/volume
  S. mutans growth grade, 3 day: 0
  S. mutans growth grade, 13 day: 0
  S. mutans growth grade, 30 day: 0
[3]; 5.0% weight/volume
  S. mutans growth grade, 3 day: 0
  S. mutans growth grade, 13 day: 0
  S. mutans growth grade, 30 day: 0

## OCC1CCC(CO)CC1 (stereo not drawn) [1,4-CHDM, 1,4-cyclohexanedimethanol]
[1]; 0.5% (wt/vol), 3 day
  Grade: 3 (100 to 1000 colonies (thus 1000 to 10,000 CFU/mL))
[1]; 0.5% (wt/vol), 14 day
  Grade: 4 (1000 to 10,000 colonies countable (thus 10,000 CFU/mL to 100,000 CFU/mL))
[1]; 0.5% (wt/vol), 30 day
  Grade: 4 (1000 to 10,000 colonies countable (thus 10,000 CFU/mL to 100,000 CFU/mL))
[1]; 1.25% (wt/vol), 3 day
  Grade: 1 (0 to 51 colonies counted (thus 10 to 510 CFU/mL based on 0.1-mL sample))
[1]; 1.25% (wt/vol), 14 day
  Grade: 3 (100 to 1000 colonies (thus 1000 to 10,000 CFU/mL))
[1]; 1.25% (wt/vol), 30 day
  Grade: 4 (1000 to 10,000 colonies countable (thus 10,000 CFU/mL to 100,000 CFU/mL))
[1]; 2.5% (wt/vol), 3 day
  Grade: 0
[1]; 2.5% (wt/vol), 14 day
  Grade: 2 (52 to 100 colonies counted (thus 520 to 1000 CFU/mL))
[1]; 2.5% (wt/vol), 30 day
  Grade: 1 (0 to 51 colonies counted (thus 10 to 510 CFU/mL based on 0.1-mL sample))
[1]; 5.0% (wt/vol), 3 day
  Grade: 0
[1]; 5.0% (wt/vol), 14 day
  Grade: 0
[1]; 5.0% (wt/vol), 30 day
  Grade: 0
[2]; 0.5% (wt/vol), 3 day
  Grade: 5 (More than 10,000 colonies estimated (thus more than 100,000 CFU/mL))
[2]; 0.5% (wt/vol), 14 day
  Grade: 4 (1000 to 10,000 colonies countable (thus 10,000 CFU/mL to 100,000 CFU/mL))
[2]; 0.5% (wt/vol), 30 day
  Grade: 4 (1000 to 10,000 colonies countable (thus 10,000 CFU/mL to 100,000 CFU/mL))
[2]; 1.25% (wt/vol), 3 day
  Grade: 4 (1000 to 10,000 colonies countable (thus 10,000 CFU/mL to 100,000 CFU/mL))
[2]; 1.25% (wt/vol), 14 day
  Grade: 4 (1000 to 10,000 colonies countable (thus 10,000 CFU/mL to 100,000 CFU/mL))
[2]; 1.25% (wt/vol), 30 day
  Grade: 4 (1000 to 10,000 colonies countable (thus 10,000 CFU/mL to 100,000 CFU/mL))
[2]; 2.5% (wt/vol), 3 day
  Grade: 3 (100 to 1000 colonies (thus 1000 to 10,000 CFU/mL))
[2]; 2.5% (wt/vol), 14 day
  Grade: 2 (52 to 100 colonies counted (thus 520 to 1000 CFU/mL))
[2]; 2.5% (wt/vol), 30 day
  Grade: 0
[2]; 5.0% (wt/vol), 3 day
  Grade: 0
[2]; 5.0% (wt/vol), 14 day
  Grade: 0
[2]; 5.0% (wt/vol), 30 day
  Grade: 0
[3]; 0.5% weight/volume
  S. mutans growth grade, 3 day: 4 (1000 to 10,000 colonies countable (thus 10,000 CFU/mL to 100,000 CFU/mL))
  S. mutans growth grade, 13 day: 4 (1000 to 10,000 colonies countable (thus 10,000 CFU/mL to 100,000 CFU/mL))
  S. mutans growth grade, 30 day: 4 (1000 to 10,000 colonies countable (thus 10,000 CFU/mL to 100,000 CFU/mL))
[3]; 1.25% weight/volume
  S. mutans growth grade, 3 day: 4 (1000 to 10,000 colonies countable (thus 10,000 CFU/mL to 100,000 CFU/mL))
  S. mutans growth grade, 13 day: 2 (52 to 100 colonies counted (thus 520 to 1000 CFU/mL))
  S. mutans growth grade, 30 day: 2 (52 to 100 colonies counted (thus 520 to 1000 CFU/mL))
[3]; 2.5% weight/volume
  S. mutans growth grade, 3 day: 2 (52 to 100 colonies counted (thus 520 to 1000 CFU/mL))
  S. mutans growth grade, 13 day: 0
  S. mutans growth grade, 30 day: 0
[3]; 5.0% weight/volume
  S. mutans growth grade, 3 day: 0
  S. mutans growth grade, 13 day: 0
  S. mutans growth grade, 30 day: 0
